Test results from US20240201203A1, “COMPOSITIONS AND METHODS FOR TREATING INDIVIDUALS WHO HAVE ONCOGENE-NEGATIVE CANCER” (priority 2021, published 2024).

Key:
[1] = system: Nf1, Rasa1, and Pten-mutant lung adenocarcinoma cell-lines; test: Clonogenic growth assay and Loewe synergy, mouse oncogene-negative cell lines; format: cell-based; conditions: three mouse cell lines, various doses, four days, crystal violet
Experimental: (§1) Cell lines were generated from tumors initiated in Trp53^flox/flox; TC BL6 mice four months after transduction with Lenti-sgNf1-sgRasa1-sgPten/Cre. After dissociation of tumors (described below), cells were cultured in the regular media.
For clonogenic assays, cells were seeded in triplicate into 24-well plates (4000 cells per well) and allowed to adhere overnight in regular growth media. Cells were then cultured in the absence or presence of the drug as indicated on each figure panel in complete media for 4 days. Growth media with or without drugs was replaced every 2 days. The remaining cells were stained with 0.5% crystal violet in 20% methanol and photographed using a digital scanner. Relative growth was quantified by densitometry after extracting crystal violet from the stained cells using 100% methanol.
Drug synergism was analyzed using SynergyFinder (https://synergyfinder.fimm.fi) web application. The degree of combination synergy, or antagonism, is quantified by comparing the observed drug combination response against the expected response, calculated using Loewe's model that assumes no interaction between drugs.

RAS and PI3K signaling = test: Immunoblot of oncogene-negative cell lines treated with drugs; format: cell-based, mouse; conditions: 3 oncogene-negative cell lines, 10 uM, 24 hours
Experimental: as §1
For apoptosis and proliferation assays, 3×10^5 cells were seeded into 6-well plates and allowed to adhere overnight in regular growth media and cultured in the presence or absence 10 uM of Capivasertib, RMC-4550, or a combination of both drugs. After 24 hours, the protein was extracted using RIPA lysis buffer (Thermo Fisher Scientific, 89900) and proteinase/phosphatase inhibitor cocktail (Thermo Fisher Scientific, 78442). Protein concentration was measured using BCA protein assay kit (Thermo Fisher Scientific, 23250). Proteins (30 ug from each sample) were separated by SDS-PAGE and immunoblotted and transferred to polyvinyl difluoride (PVDF) membranes (BioRad, 162-0177) according to standard protocols. Membranes were immunoblotted with antibodies against phosphor-ERK (Cell Signaling Technology, 4370), ERK (Cell Signaling Technology, 9102), phosphor-AKT (Thermo Fisher Scientific, 44-621G), AKT (Cell Signaling Technology, 4691), phospho-S6 (Cell Signaling Technology, 4858), S6 (Cell Signaling Technology, 2217), and HSP90 (BD Bioscience, 610418). […]

[2] = system: Nf1, Rasa1, and Pten mutant oncogene-negative lung tumors; test: Drug efficacy study in TC mice with oncogene-negative lung tumors (Tuba-seq, imaging, histology); format: in vivo, mouse; conditions: tumors from sgNf1/sgRasa1/sgPten vectors, capivasertib 100 mg/kg, RMC-4550 30 mg/kg, gavage, two weeks, 3.5 months after tumor initiation, vs vehicle
Experimental: For drug efficacy studies, TC mice (8-12 weeks old) were divided into 4 groups randomly. They received the vehicle, capivasertib (100 mg/kg, Med Chem Express), RMC-4550 (30 mg/kg, Med Chem Express), or a combination of both dissolved in 10% DMSO, 40% PEG, 5% Tween 80, and 45% PBS through a gavage needle. Mice were treated daily with drugs for eight days, and the treatment was stopped for two days for recovery, and it continued for two more days before the tissue harvest.
Tumors were initiated by intratracheal delivery of pooled or individual Lenti-sgRNA/Cre vectors. Barcoded Lenti-sgRNA/Cre vectors within each viral pool are indicated in each figure. […]
For DNA extraction from single dissected tumors to generate libraries for Tuba-seq, targeted sequencing of selected oncogenes, and whole-exome sequencing, we used Qiagen AllPrep DNA/RNA Micro kit. […] Three cell lines (100,000 to 500,000 cells each) were added to each mouse lung sample before lysis to enable the calculation of the absolute number of neoplastic cells in each tumor from the number of sgID-BC reads. […] The concentration and quality of the purified libraries were determined using the Agilent High Sensitivity DNA kit (Agilent Technologies, 5067-4626) on the Agilent 2100 Bioanalyzer (Agilent Technologies, G2939BA). […]
The FASTQ files were parsed to identify the sgID and barcode (BC) for each read. […]

| SMILES | overall growth of oncogene-negative cell lines [1] | RAS signaling (immunoblot) (RAS and PI3K signaling) | total tumor burden (Tuba-seq analysis) [2] | PI3K signaling (immunoblot) (RAS and PI3K signaling) |
| --- | --- | --- | --- | --- |
| Cc1nc(N2CCC3(CC2)CO[C@@H](C)[C@H]3N)c(CO)nc1-c1cccc(Cl)c1Cl [RMC-4550] | decreased the overall growth of three oncogene-negative RAS/PI3K cell lines in a dose-dependent manner | reduced | reduced the total tumor burden significantly |  |
| NC1(C(=O)N[C@@H](CCO)c2ccc(Cl)cc2)CCN(c2ncnc3[nH]ccc23)CC1 [capivasertib] | decreased the overall growth of three oncogene-negative RAS/PI3K cell lines in a dose-dependent manner |  | ineffective | reduced |
